Literature values as cited in patent US20060177524A1, “Ocular irrigating solution” (University of Bristol, priority 1998, published 2006).

Assays:
[1] = at 25° C.
[2] = system: endothelial Na^+K^+ ATPase; conditions: Geroski et al 1982-83, human and rabbit corneas

| Compound | pKa [1] | Toxicity to endothelial Na^+K^+ ATPase [2] |
| --- | --- | --- |
| O=S(=O)(O)CCCN1CCN(CCO)CC1 [EPPS, N-[2-hydroxyethyl]-piperazine-N′-[3-propanesulfonic acid]] | 8.0 | – |
| O=S(=O)(O)CCN1CCN(CCO)CC1 [HEPES, N-2-[hydroxyethyl]piperazine-N′-[2-ethanesulfonic acid]] | – | toxic |
